Measurements as given in patent publication US8058243B2, “Method for treating a brain cancer with ifenprodil” (HSC Research and Development Limited Partnership, priority 2006, dated 2011).
Structures can show the parent of a compound that is named as a salt. Where two headings read alike, the source gives them in different places.

System: murine neural precursor cells (neurosphere cultures)
Assay: HTS of LOPAC library against secondary neurosphere cultures, MTT proliferation assay at 3 μM, day 7 (z score, P value)
Type: cell-based, mouse
[1] = primary LOPAC screen, 3 μM, MTT, neurosphere proliferation
[2] = yes/no: significantly inhibited neurosphere proliferation in the primary screen
[3] = LOPAC library screen at 3 μM, secondary neurosphere cultures, MTT
[4] = LOPAC primary screen, neurosphere MTT proliferation, 3 μM, day 7
[5] = LOPAC library screen, 3 μM, MTT, neurosphere cultures
[6] = yes/no: significantly inhibited neurosphere proliferation in primary screen
[7] = LOPAC library screen, 3 μM, MTT, secondary neurosphere cultures, day 7
[8] = yes/no: significantly inhibited neurosphere proliferation (P<0.01) in primary screen
[9] = LOPAC library screen at 3 μM, MTT, secondary neurosphere cultures, screened in singlets
[10] = yes = significantly inhibited neurosphere proliferation (P<0.01) in the primary screen
[11] = LOPAC screen, neurosphere MTT proliferation, 3 μM, day 7
[12] = yes/no: significantly inhibited neurosphere proliferation (P<0.01) in the primary screen

CC(C)(C=O)Cc1cc(C(C)(C)C)c(O)c(C(C)(C)C)c1 [CGP-13501]
Z Score: −1.096 | Z score [1]: −1.096 | Activity [2]: no

N.S=C(S)N1CCCC1 [Ammonium pyrrolidinedithiocarbamate]
Activity: no | Z Score [3]: −0.4168 | Z score [4]: −0.417

CC(=O)[C@H]1CC[C@H]2[C@@H]3CCC4=CC(=O)CC[C@]4(C)[C@H]3CC[C@]12C [Progesterone]
Z Score [5]: 0.4252 | Z score [4]: 0.425 | Activity [6]: no

N=C(N)c1ccc(OCCCCCOc2ccc(C(=N)N)cc2)cc1 [Pentamidine (32), Pentamidine, reference compound]
Activity: yes | Z Score [7]: −11.27 | Z score [4]: −11.274

[Cl-].[Li+] [Lithium Chloride]
Z Score: −0.9113 | Z score [4]: −0.911 | Activity [8]: no

Cl.NCCc1ccc(O)cc1 [4-Hydroxyphenethylamine hydrochloride]
Z Score: 1.03 | Z score [1]: 1.030 | Activity [2]: no

CCCNC(C)C(=O)Nc1ccccc1C (stereo not shown) [Prilocaine hydrochloride]
Z Score [9]: 1.509 | Z score [4]: 1.509 | Activity [6]: no

R(−)-2,10,11-Trihydroxyaporphine hybrobromide
Z Score: −3.309

CC1(C)CCC2=C(O1)c1ccccc1C(=O)C2=O [beta-Lapachone]
Z Score (168 h, 3 µM): −10.43 | Z score (168 h, 3 µM): −10.428 | Activity [10]: yes

O=C(O)/C(=C/c1c(C(=O)O)[nH]c2cc(Cl)cc(Cl)c12)c1ccccc1 [MDL 105,519]
Activity: no | Z Score: 2.565 | Z score: 2.565

O=C(O)c1cc(=O)c2c(Cl)cc(Cl)cc2[nH]1 [5,7-Dichlorokynurenic acid]
Z Score [5]: 0.9011 | Z score [4]: 0.901 | Activity [8]: no

C[N+]1(C)[C@@H]2CC[C@H]1C[C@@H](OC(=O)C(CO)c1ccccc1)C2 (stereo partly shown) [Atropine methyl nitrate]
Z Score [5]: 1.292 | Z score [4]: 1.292 | Activity [6]: no

Nc1ccc(N2C(=O)c3ccccc3C2=O)c(Cl)c1 [N-(4-Amino-2-chlorophenyl)phthalimide]
Z Score [3]: −0.6021 | Z score [1]: −0.602 | Activity [2]: no

NC(C(=O)O)C(O)C(=O)O (racemic) [DL-threo-beta-hydroxyaspartic acid]
Z Score: −0.5215 | Z score [4]: −0.522 | Activity [8]: no

NCCCCCC(=O)O [6-Aminohexanoic acid]
Activity: no | Z Score: −2.179 | Z score: −2.179

COc1ccc(CN(CCN(C)C)c2ccccn2)cc1 [Pyrilamine maleate]
Z Score [5]: 0.9893 | Z score [4]: 0.989 | Activity [10]: no

Cl.NCC(O)C1CCCCCCC1 (stereo not shown)
Z Score: −0.5747

5-Bromo-2$$-deoxyuridine
Z Score: 2.58

O=c1[nH]c2cc(C(F)(F)F)ccc2n1-c1cc(C(F)(F)F)ccc1O [NS-1619]
Z Score: −0.4878 | Z score [4]: −0.488 | Activity [6]: no

CN(C)C/C=C(/c1ccc(Br)cc1)c1cccnc1 [Zimelidine dihydrochloride]
Z Score [3]: −0.649 | Z score [1]: −0.649 | Activity [2]: no

C[C@]12CC[C@@H](O)C[C@@H]1CC[C@@H]1[C@@H]2CC[C@]2(C)[C@@H](O)CC[C@@H]12 [5alpha-Androstane-3alpha,17beta-diol]
Z score [1]: −0.381 | Activity [2]: no

O=C1c2c(O)cc(O)cc2O[C@H](c2ccc(O)c(O)c2)[C@H]1O (racemic) [(±)-Taxifolin]
Z score (168 h, 3 µM): 1.321 | Activity [2]: no

CCCCCCCCCC[Si](C)(C)CCC(=O)NC(Cc1ccc(C)cc1)c1ccccc1 (stereo not shown) [Sandoz 58-035]
Z Score [5]: 0.3325 | Z score [1]: 0.332 | Activity [2]: no

CN(C)CCC(c1ccc(Cl)cc1)c1ccccn1.O=C(O)/C=C\C(=O)O (racemic) [(±)-Chlorpheniramine maleate]
Activity: no | Z score: −2.116

COCCCC/C(=N\OCCN)c1ccc(C(F)(F)F)cc1 [Fluvoxamine maleate]
Activity: no | Z Score [5]: 0.1323 | Z score [4]: 0.132

O=C(O)Cc1ccc(O)c(O)c1 [3,4-Dihydroxyphenylacetic acid]
Z Score: −0.5832 | Z score [11]: −0.583 | Activity [8]: no

OC[C@H]1O[C@@H](n2cnc3c(NC4CCCCC4)ncnc32)[C@H](O)[C@@H]1O [N6-Cyclohexyladenosine]
Z Score [7]: −2.883 | Z score [4]: −2.883 | Activity [12]: yes

Oc1ccc2c3c1O[C@H]1[C@@H](O)CC[C@@]4(O)[C@@H](C2)N(CC2CCC2)CC[C@]314 [Nalbuphine hydrochloride]
Activity: no | Z Score: 0.07032 | Z score: 0.070

O=c1ccc2ccc(O)c(O)c2o1 [Daphnetin]
Activity: no | Z Score (168 h, 3 µM): −0.9798 | Z score (168 h, 3 µM): −0.980

CN1C(=O)CCS(=O)(=O)C1c1ccc(Cl)cc1 (stereo not shown) [Chlormezanone]
Z Score: −0.9465 | Z score [11]: −0.947 | Activity [8]: no

O=C(c1cc(O)c(O)c([N+](=O)[O-])c1)c1ccccc1F [Ro 41-0960]
Z Score: −0.36 | Z score [4]: −0.360 | Activity [6]: no

CNCCc1c[nH]c2ccc(O)cc12.O=C(O)C(=O)O
Z Score: 0.656 | Z score [4]: 0.656 | Activity [10]: no

Cl.N=C(N)c1ccccc1 [Benzamidine hydrochloride]
Activity: no | Z Score: 1.509 | Z score: 1.509

CCN(CC)CC#CCOC(=O)C(O)(c1ccccc1)C1CCCCC1 (stereo not shown) [Oxybutynin Chloride]
Activity: no | Z Score [5]: 0.708 | Z score [4]: 0.708

CC1=C(CC(=O)O)c2cc(F)ccc2/C1=C\c1ccc([S+](C)[O-])cc1 (stereo not shown) [Sulindac]
Activity: no | Z Score [3]: −0.1942 | Z score [4]: −0.194

(−)-Tetramisole hydrochloride
Z Score [7]: −1.866

COC1=C(OC)C(=O)c2ccccc2C1=O [2,3-Dimethoxy-1,4-naphthoquinone]
Z Score: −10.4 | Z score [4]: −10.398 | Activity [12]: yes

C[C@]12CCC(=O)C=C1CC[C@@H]1[C@@H]2CC[C@@]2(C)[C@H]1CC[C@]2(O)C(=O)CO [Cortexolone]
Z Score [3]: −0.6087 | Z score [4]: −0.609 | Activity [6]: no

COC(=O)[C@H]1[C@H]2C[C@H]3c4[nH]c5ccccc5c4CCN3C[C@H]2CC[C@@H]1O [Rauwolscine hydrochloride]
Z Score (168 h, 3 µM): −1.747 | Z score (168 h, 3 µM): −1.747 | Activity [6]: no

CN1[C@@H]2CC[C@H]1C[C@@H](OC(c1ccccc1)c1ccccc1N)C2 (stereo partly shown) [Aminobenztropine]
Z Score [7]: −1.455 | Z score [4]: −1.455 | Activity [12]: no

CN(C)CCCN1c2ccccc2Sc2ccccc21 [Promazine hydrochloride]
Z Score [3]: −0.8882 | Z score [4]: −0.888 | Activity [12]: no

Cl.O=C(Cc1ccc(Cl)c(Cl)c1)N1CCCCC1CN1CCCC1 (stereo not shown) [BRL 52537 hydrochloride]
Z Score: −2.761 | Z score [4]: −2.761 | Activity [12]: yes

CC#C[C@]1(O)CC[C@H]2[C@@H]3CCC4=CC(=O)CCC4=C3[C@@H](c3ccc(N(C)C)cc3)C[C@@]21C [Mifepristone]
Z Score (168 h, 3 µM): −1.97 | Z score (168 h, 3 µM): −1.970 | Activity [10]: no

Cl.N[C@@H](CCC(=O)O)C(=O)O [L-Glutamic acid hydrochloride]
Z Score: −0.4727 | Z score [4]: −0.473 | Activity [8]: no

Oc1cc2c(cc1O)CN(C(=S)NCCc1ccc(Cl)cc1)CCC2 [Capsazepine]
Z Score [5]: 1.26 | Z score [11]: 1.260 | Activity [8]: no

CCOC(=O)[C@]12CC1/C(=N\O)c1ccccc1O2 (mixture of isomers) [CPCCOEt]
Z Score [3]: −0.8068 | Z score [11]: −0.807

Nc1ncn([C@@H]2O[C@H](CO)[C@@H](O)[C@H]2O)c(=O)n1 [5-azacytidine]
Z Score [7]: −1.398 | Z score [1]: −1.398 | Activity [2]: no

CC#CCOC(=O)c1c(C)nc2sc3c(c2c1N)CCC(O)C3 (stereo not shown) [SB 205384]
Z Score: 0.7968 | Z score [4]: 0.797 | Activity [6]: no

N[C@@H](Cc1ccc(O)c(I)c1)C(=O)O [3-Iodo-L-tyrosine]
Z Score (168 h, 3 µM): −0.04844 | Z score (168 h, 3 µM): −0.048 | Activity [8]: no

O=C(O)[C@@H]1[C@H](C(=O)O)[C@H]2CC[C@@H]1O2 [Endothall]
Z Score: −1.143 | Z score [4]: −1.143 | Activity [8]: no

CCC(C)N(C)C(=O)c1cc2ccccc2c(-c2ccccc2Cl)n1 (stereo not shown) [PK 11195]
Z Score (168 h, 3 µM): −0.4676 | Z score (168 h, 3 µM): −0.468 | Activity [8]: no

O=C1NC(=O)C(c2ccccc2[N+](=O)[O-])=C1Nc1ccc(O)c(Cl)c1 [SB 415286]
Z Score: −2.87 | Z score [4]: −2.870

CCCC(C)(COC(N)=O)COC(=O)NC(C)C (stereo not shown) [Carisoprodol]
Z Score: −1.795 | Z score [11]: −1.795 | Activity [8]: no

COc1ccccc1N1CCN(CCN(C(=O)c2ccc(F)cc2)c2ccccn2)CC1.Cl.Cl [p-MPPF dihyrochloride]
Z score [4]: −2.160 | Activity [10]: no

C#CCN(C)CCCOc1ccc(Cl)cc1Cl [Clorgyline hydrochloride]
Activity: no | Z Score [9]: 1.52 | Z score [4]: 1.520

O=C(O)C1CCCNC1 (stereo not shown) [(B1)-Nipecotic acid]
Z Score: −0.7215

O=C(O)CCCCC1CCSS1 (racemic) [(±)-alpha-Lipoic Acid]
Z score [4]: 0.342 | Activity [6]: no
